Patent publication US10993988B2, “Anthelmintic combinations and methods of use thereof” (BOEHRINGER INGELHEIM ANIMAL HEALTH USA INC., priority 2015, dated 2021)
Like-named read-outs stand apart in the source and are kept apart here.

Experiments:
MP3 strain of D. immitis = conditions: cited from earlier work
[1] = tested on: JYD-34 isolate of Dirofilaria immitis; assay: Efficacy of ivermectin and emodepside, separately and in combination, against induced Dirofilaria immitis infection in dogs (live worm counts at necropsy); conditions: in vivo, po
[2] = normal prophylaxis regimens, recent reports

Compound	Efficacy against MP3 strain (MP3 strain of D. immitis; [2])	Efficacy against MP3 strain (MP3 strain of D. immitis; in vivo)	Efficacy [1]
CO[C@H]1C[C@H](O[C@@H]2/C(C)=C/C[C@@H]3C[C@@H](C[C@]4(CC[C@H](C)[C@@H](C5CCCCC5)O4)O3)OC(=O)[C@@H]3C=C(C)/C(=N/O)[C@H]4OC/C(=C\C=C\[C@@H]2C)[C@]43O)O[C@@H](C)[C@@H]1O [selamectin]	incomplete efficacy		
CC[C@H](C)[C@H]1O[C@]2(CC[C@@H]1C)C[C@@H]1C[C@@H](C/C=C(\C)[C@@H](O[C@H]3C[C@H](OC)[C@@H](O[C@H]4C[C@H](OC)[C@@H](O)[C@H](C)O4)[C@H](C)O3)[C@@H](C)/C=C/C=C3\CO[C@@H]4[C@H](O)C(C)=C[C@@H](C(=O)O1)[C@]34O)O2 [ivermectin oral solution, ivermectin]		incomplete efficacy	Less than 50%
milbemycin oxime	incomplete efficacy		
